What was measured:
Format in all cases: biochemical
[1] = biological target: T1, matriptase (Homo sapiens, UniProt Q9Y5Y6); assay: fluorometric enzyme inhibition assay, matriptase (Boc-Leu-Arg-Arg-AMC); details: for Ki: from IC50 by Cheng-Prusoff, n.a. = not active, <80% inhibition at 20 µM
T1 construct: catalytic domain of matriptase (uniport: Q9Y5Y6 aa 596–855); hexa-histidine (N); made in house; host or cells: Escherichia coli BL21 Gold (DE3)
T1 sequence (Q9Y5Y6 596-855): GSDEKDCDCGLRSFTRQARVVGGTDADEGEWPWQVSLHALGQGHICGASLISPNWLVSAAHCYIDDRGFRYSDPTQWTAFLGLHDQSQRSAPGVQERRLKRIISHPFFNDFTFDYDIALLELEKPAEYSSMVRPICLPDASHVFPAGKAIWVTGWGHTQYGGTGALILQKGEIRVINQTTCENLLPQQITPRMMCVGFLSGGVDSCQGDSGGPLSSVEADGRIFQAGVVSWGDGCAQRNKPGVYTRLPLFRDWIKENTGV
Method: (§1) The inhibitory activity of the synthesized compounds towards the respective main- and off-target proteases was measured via fluorometric and colorimetric assays. Thus, fluorogenic AMC- or colorimetric pNA-based substrates with a peptide sequence suitable for the tested protease were utilized (see Supplementary Figure S2). At first, the compounds were screened against […] proteases (uPA, TMPRSS2, matriptase, tPA, thrombin, factor Xa) at 20 µM, and a cut-off value of 80% inhibition at this concentration was set, for the differentiation between nonactive (n.a.) and active inhibitors. Due to the reversible inhibition mechanism of the ketobenzothiazole derivates, the IC50 values were determined with Graphpad Prism 9, and afterwards converted to the corresponding Ki values for an adequate comparison between the inhibitory activities of the compounds toward all tested proteases. The Ki values were calculated using the Cheng–Prusoff equation [43].
(§2) Fluorometric inhibition assays
(§3) The inhibitory activities of the compounds against the proteases were determined by enzyme inhibition assays with fluorogenic or colorimetry-based substrates. The fluorescence, caused by cleaved AMC from the fluorogenic substrates (uPA, matriptase, TMPRSS2, thrombin), was measured in white flat-bottom 96-well plates from Greiner Bio-One using a Tecan Infinite F200 Pro plate reader. The absorption, caused by cleaved pNA from colorimetric substrates (factor Xa and tPA), was measured in transparent flat-bottom 96-well plates from Greiner Bio-One using a Tecan Spark 10M plate reader. All measurements with the main-target proteases (uPA and TMRPSS2) were performed as triplicates and with the off-target proteases (matriptase, factor Xa, tPA, thrombin) as duplicates. The substrates and the compounds were prepared as stock solutions in DMSO. Each well contained a total volume of 200 µL, consisting of 185 µL buffer, 5 µL inhibitor in DMSO or pure DMSO as negative control, 5 µL substrate in DMSO and 5 µL enzyme solution in buffer. Dilution series were prepared for the determination of the inhibition constants. The fluorescence signal and absorbance were measured every 30 s for 10 min at 25 or 37 °C with the corresponding excitation/emission (λex = 380 nm / λem = 460 nm) and absorbance (λabs = 405 nm) wavelengths, depending on the targeted protease. IC50 values for the reversible inhibitors were calculated with Graphpad Prism 9 by fitting the remaining enzymatic activity to the four parameter IC50 equation with Y [%] as the residual enzyme activity , Ymax as the maximum value of the dose response curve at inhibitor concentrations [I] = 0 µM, Ymin as the minimum value at high inhibitor concentrations and s as the hill coefficient.[1] The fluorescence progress curves and sigmoidal dose-response curve for inhibition of uPa by compound 38 is shown exemplary in Figure S2. […]
(§4) Due to the dependence of the IC50 value on the substrate affinity and concentration, the Ki values were calculated with the Cheng-Prusoff equation, using the final substrate concentration [S] and the Michaelis-Menten constant KM, (2) for appropriate comparison of the inhibitory activities to the other enzymes and inhibitors.[1]
(§5) KM values were determined by fitting to the Michaelis-Menten equation using Graphpad Prism 9 with v [ΔF/min] as the substrate hydrolysis rate, vmax as the maximum slope of the dose-response curve, and the substrate [S] concentration.[1] The different substrates were serially diluted in DMSO. The measurement was done in analogy to the determination of the inhibitory activity, but with 5 µL pure DMSO instead of inhibitor solution. […]
(§6) The following buffers and substrates were used for the respective assays: uPA (50 mM Tris HCl pH = 7.9, 150 mM […]
(§7) TMPRSS2 (25 mM Tris HCl pH = 8.0, 150 mM NaCl, 5 mM CaCl2, 0.001% TX-100, 100 µM Boc-Gln-Ala-Arg-AMC (KM: 68.63 ± 6.64 µM), 25 °C, 3 nM TMPRSS2)[3]; matriptase (50 mM Tris HCl pH = 8.0, 150 mM NaCl, 5 mM CaCl2, […]

[2] = biological target: T2, TMPRSS2 (Homo sapiens, UniProt O15393); assay: fluorometric enzyme inhibition assay, TMPRSS2 (Boc-Gln-Ala-Arg-AMC); details: for Ki: from IC50 by Cheng-Prusoff, n.a. = not active, <80% inhibition at 20 µM
T2 construct: purchased Cusabio
Method: as §1, §2, §3, §4, §5, §6, §7

[3] = biological target: T3, tPA (Homo sapiens, UniProt P00750); assay: colorimetric enzyme inhibition assay, tPA (N-methylsulfonyl-D-Phe-Gly-Arg-pNA); details: from IC50 by Cheng-Prusoff; n.a. = not active, <80% inhibition at 20 µM
T3 construct: purchased Sigma Aldrich
Method: as §1, §2, §3, §4
KM values were determined by fitting to the Michaelis-Menten equation using Graphpad Prism 9 with v [ΔF/min] as the substrate hydrolysis rate, vmax as the maximum slope of the dose-response curve, and the substrate [S] concentration.[1] The different substrates were serially diluted in DMSO. […]

[4] = biological target: T4, factor Xa (Homo sapiens, UniProt P00742); assay: colorimetric enzyme inhibition assay, factor Xa (Z-D-Arg-Gly-Arg-pNA); details: from IC50 by Cheng-Prusoff; n.a. = not active, <80% inhibition at 20 µM
T4 construct: purchased Bio-techne
Method: as §1, §2, §3, §4, §5, §6, §7

[5] = biological target: T5, thrombin (Homo sapiens, UniProt P00734); assay: fluorometric enzyme inhibition assay, thrombin (Z-Gly-Gly-Arg-AMC); details: from IC50 by Cheng-Prusoff; n.a. = not active, <80% inhibition at 20 µM
T5 construct: purchased Bio-techne
Method: as §1, §2, §3, §4, §5, §6, §7

T2 sequence (O15393 whole entry): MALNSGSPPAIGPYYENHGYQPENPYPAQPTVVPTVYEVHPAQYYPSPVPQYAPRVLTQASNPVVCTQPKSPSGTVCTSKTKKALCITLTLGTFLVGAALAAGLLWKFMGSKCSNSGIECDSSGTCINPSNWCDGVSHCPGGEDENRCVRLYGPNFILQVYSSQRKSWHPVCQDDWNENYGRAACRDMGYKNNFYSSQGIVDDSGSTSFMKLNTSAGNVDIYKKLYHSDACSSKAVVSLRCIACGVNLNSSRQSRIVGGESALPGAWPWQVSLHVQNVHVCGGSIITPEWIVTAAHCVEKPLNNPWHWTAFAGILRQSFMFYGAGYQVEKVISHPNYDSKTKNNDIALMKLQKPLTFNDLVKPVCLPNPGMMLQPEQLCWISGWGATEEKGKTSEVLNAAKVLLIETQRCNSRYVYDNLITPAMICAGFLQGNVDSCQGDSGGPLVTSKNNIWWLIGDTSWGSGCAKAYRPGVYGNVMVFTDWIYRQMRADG
T3 sequence (P00750 36-562): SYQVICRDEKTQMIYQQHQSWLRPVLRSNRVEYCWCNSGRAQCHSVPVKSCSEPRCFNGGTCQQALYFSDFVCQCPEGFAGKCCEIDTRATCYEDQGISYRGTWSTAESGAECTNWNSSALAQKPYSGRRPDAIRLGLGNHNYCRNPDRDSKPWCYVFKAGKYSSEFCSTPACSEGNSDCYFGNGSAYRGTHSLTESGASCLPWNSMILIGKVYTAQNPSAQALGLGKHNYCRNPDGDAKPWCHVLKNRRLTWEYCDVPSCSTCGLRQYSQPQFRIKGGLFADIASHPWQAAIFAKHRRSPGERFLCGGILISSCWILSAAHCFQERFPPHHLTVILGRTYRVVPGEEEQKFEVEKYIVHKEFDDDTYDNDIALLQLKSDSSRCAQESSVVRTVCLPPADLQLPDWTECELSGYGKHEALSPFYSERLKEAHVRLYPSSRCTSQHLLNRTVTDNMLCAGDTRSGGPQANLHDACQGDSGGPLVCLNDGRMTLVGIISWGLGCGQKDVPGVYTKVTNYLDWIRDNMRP
T4 sequence (P00742 235-488 limits assumed): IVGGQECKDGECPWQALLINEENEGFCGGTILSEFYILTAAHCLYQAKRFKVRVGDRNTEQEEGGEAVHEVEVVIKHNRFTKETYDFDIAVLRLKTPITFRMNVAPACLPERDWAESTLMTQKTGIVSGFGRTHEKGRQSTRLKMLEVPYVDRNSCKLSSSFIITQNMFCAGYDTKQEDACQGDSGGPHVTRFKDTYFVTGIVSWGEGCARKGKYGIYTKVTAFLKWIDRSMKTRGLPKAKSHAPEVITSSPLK
T4 sequence (P00742 41-179 partner limits assumed): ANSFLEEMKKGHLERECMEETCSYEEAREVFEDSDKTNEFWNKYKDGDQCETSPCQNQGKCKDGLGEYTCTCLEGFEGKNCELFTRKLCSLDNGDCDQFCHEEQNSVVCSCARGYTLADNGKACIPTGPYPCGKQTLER

| SMILES | Ki [1] | Selectivity index [SI] Matriptase ([1]; quotient Ki matriptase / Ki TMPRSS2) | Ki [2] | Ki tPA [3] | Selectivity index [SI] Matriptase ([1]; quotient Ki matriptase / Ki uPA) | Ki Factor Xa [4] | Ki Thrombin [5] | Selectivity index [SI] TMPRSS2 ([2]; quotient Ki TMPRSS2 / Ki uPA) |
| --- | --- | --- | --- | --- | --- | --- | --- | --- |
| CC(=O)N[C@@H](Cc1ccccc1)C(=O)N[C@@H](Cc1ccc(NC(=N)N)cc1)C(=O)c1nc2ccccc2s1 [Compound 33] | 1440 ± 90 nM | 289 | 5 ± 2 nM | – | – | – | – | – |
| CC(=O)NCC(=O)NC(C(=O)NC(C)C(=O)NC(CC1CCC(NC(=N)N)CC1)C(=O)c1nc2ccccc2s1)C(C)O (stereo not shown) [Compound 38] | 626 ± 74 nM | – | 73 ± 16 nM | did not inhibit | 16 | did not inhibit | did not inhibit | 1.8 |

— paper PMC10855164, “Ligand-Based Design of Selective Peptidomimetic uPA and TMPRSS2 Inhibitors with Arg Bioisosteres” (International Journal of Molecular Sciences, 2024)
